The subject of data set [1] is CHO-S cells expressing IgG1 mAb1. In words: Fed-batch cell culture in microplates, cells expressing mAb1, with DIDS. The class given is cell-based, Chinese hamster. How it is done: (§1) Assays were performed with 2 CHO cell lines: • CHO-S cells expressing IgG1 mAb1, herein “Cells mAb1” or “mAb1 cells”. “mAb1” is a fully human monoclonal antibody directed against a soluble protein. Its isoelectric point (pI) is about 8.20-8.30. • CHO-K1 cells expressing IgG1 mAb2, herein “Cells mAb2” or “mAb2 cells”. “mAb2” is a humanised monoclonal antibody directed against a receptor found on the cell membrane. Its isoelectric point (pI) is about 9.30.
(§2) Cells expressing mAb2 were inoculated at 0.2×10^6 cells per milliliter (mL), whereas cells expressing mAb1 were inoculated at 0.3×10^6 cells per mL.
(§3) All assays were performed in fed-batch culture. The host cells were cultured in fed-batch system either in microplates (“Deep well plate”) or in Spin Tubes®, and incubated at 36.5° C., 90% relative humidity, 5% CO2 and 320 rpm shaking during 14 days.
(§4) Viable cell density and viability were measured with the Guava easyCyte® flow cytometer or with the ViCell.
(§5) Antibody titres were measured either with the fortéBIO Octet® or with Biacore C®.
(§6) Glycosylation profiles were established by capillary gel electrophoresis with laser-induced fluorescence (CGE-LIF). Dosages of aggregates and fragments were performed respectively via Size Exclusion High Performance Liquid Chromatography (SE-HPLC) and via SDS-capillary gel electrophoresis.
The host cells expressing the antibody mAb1 were cultured in presence of DIDS at concentrations ranging from 0.4 μM to 83 μM. The cell density and the viability were measured during the culture, whereas the titre was measured on day 14 (FIGS. 1A-1C). Addition of DIDS in the culture medium allowed increase of viable cell density and the titre. Specifically the concentration of 83 μM of DIDS allowed to double the cell density at day 7 (WD7) and to multiply the titre by factor 1.4 at the end of the culture process at day 14 (WD14). The viability was maintained, compared to the control, until day 12.

The subject of data set [2] is CHO-K1 cells expressing IgG1 mAb2. It is filed as cell-based, Chinese hamster. As for the experimental part:
as §1, §2, §3, §4, §5, §6
(§7) The efficacy of DIDS was also tested in Spin tubes at concentrations around 40 μM (41 μM) and/or around 85 μM (82 μM for mAb1 and 87 μM for mAb2). These concentrations are not toxic for the host cells expressing the antibodies mAb1 and mAb2 and allowed to obtain an important increase of the cell density and the titre of the antibody mAb1 (FIG. 3). As expected for the cells expressing the antibody mAb1, the viable cell density and the specific production increase in the presence of DIDS, which allowed at DIDS concentration of 82 μM to multiply the titre by factor 1.4 comparing to the control (FIGS. 3A-3D). […] Similar results are observed for mAb2: DIDS allowed the increase of the specific productivity of the host cells expressing the antibodies mAb2 (about 20% increase at day 10), and is able to maintain the viability of the cells for about 10 days (FIGS. 3E-H).

Data set [3] concerns CHO-S cells expressing IgG1 mAb1. The class given is cell-based, Chinese hamster. To be noted: Spin tubes. As for the experimental part: as §1, §2, §3, §4, §5, §6, §7
Data set [4] relates to recombinant CHO cells. To be noted: batch culture, end of the production run (after 8 days of culture); cited from earlier work.
In data set [5] the test system is recombinant CHO cells. To be noted: perfusion batch culture, within 6 days of treatment; cited from earlier work.
[6] abbreviates: in the presence of DIDS (41 μM, 82 μM).

Where two headings read alike, the source gives them in different places.

For `O=S(=O)([O-])c1cc(N=C=S)ccc1/C=C/c1ccc(N=C=S)cc1S(=O)(=O)[O-].[Na+].[Na+]` [DIDS, 4,4′-diisothiocyanostilbene-2,2′-disulfonic acid], the cell density entry in data set [1] (83 μM DIDS, day 7 (WD7), microplates, versus control) is recorded as “double”. Further, the “titre multiplied by factor” value in data set [1] (83 μM DIDS, end of culture day 14 (WD14), microplates, versus control) is on record as 1.4. Further, the viability result in data set [1] (compared to the control, until day 12, DIDS 0.4 μM to 83 μM) was “maintained”. In addition, in data set [2] (DIDS around 40 μM (41 μM) and/or 87 μM, Spin tubes), the “toxicity for the host cells expressing mAb2” value is listed as “not toxic”. Besides, in data set [2] (Spin tubes, mAb2 cells), the “time for which viability of the cells is maintained” value is listed as “about 10 days”. In addition, the “increase of the specific productivity” value in data set [2] (day 10, Spin tubes, mAb2 cells) is recorded as “about 20%”. In data set [3] (82 μM DIDS, comparing to the control), the “titre multiplied by factor” value is reported as 1.4. Besides, in data set [3] (DIDS 41 μM and 82 μM), the “toxicity for the host cells expressing mAb1” value was “not toxic”. For the same molecule, in data set [3] (setting [6]), the specific production entry was “increase” and the viable cell density entry is given as “increase”.
For the molecule `CCCC(=O)[O-].[Na+]` [sodium butyrate], the cell viability – broadly, a read-out of living cells in per cent, often relative to untreated cells – in data set [4] is recorded as “less than 45%”; in data set [5] it was 15%.

These data come from patent US10745663B2, “Methods for modulating production profiles of recombinant proteins” (ARES TRADING S.A., priority 2015, dated 2020).
